Read-outs that look alike come from different tables or passages of the source.
Key:
UACC-257 = assay: NCI anticancer screening (SRB), Melanoma subpanel; type: cell-based, human
SNB-75 = assay: NCI anticancer screening (SRB), CNS Cancer subpanel; type: cell-based, human
NCI-H322M = assay: NCI anticancer screening (SRB), Non-Small Cell Lung Cancer subpanel; type: cell-based, human
NCI-H522 = assay: as above; type: cell-based, human
RPMI-8226 = assay: NCI anticancer screening (SRB), Leukemia subpanel; type: cell-based, human
HT29 = assay: NCI anticancer screening (SRB), Colon Cancer subpanel; type: cell-based, human
MCF-7 cells [1] = assay: Annexin V-FITC/PI apoptosis assay; type: cell-based, human; conditions: 24 h
[2] = tested on: Renal Cancer subpanel tumor cell lines; assay: NCI anticancer screening, subpanel summary; type: cell-based; conditions: mean over subpanel cell lines
[3] = tested on: Ovarian Cancer subpanel tumor cell lines; assay: NCI anticancer screening, subpanel summary; type: cell-based; conditions: Ovarian Cancer, mean over subpanel cell lines
[4] = tested on: Colon Cancer subpanel tumor cell lines; assay: NCI anticancer screening, subpanel summary; type: cell-based; conditions: mean over subpanel cell lines
[5] = tested on: Breast Cancer subpanel tumor cell lines; assay: NCI anticancer screening, subpanel summary; type: cell-based; conditions: Breast Cancer, mean over subpanel cell lines
[6] = tested on: CNS Cancer subpanel tumor cell lines; assay: NCI anticancer screening, subpanel summary; type: cell-based; conditions: mean over subpanel cell lines
[7] = tested on: Melanoma subpanel tumor cell lines; assay: NCI anticancer screening, subpanel summary; type: cell-based; conditions: mean over subpanel cell lines
[8] = tested on: 59 human cancer cell lines; assay: NCI anticancer screening, full panel summary
[9] = tested on: Leukemia subpanel tumor cell lines; assay: NCI anticancer screening, subpanel summary; type: cell-based; conditions: Leukemia, mean over subpanel cell lines
[10] = tested on: Prostate Cancer subpanel tumor cell lines; assay: NCI anticancer screening, subpanel summary; type: cell-based; conditions: mean over subpanel cell lines
MCF-7 cells [11] = assay: Cell cycle analysis (PI flow cytometry); type: cell-based, human; conditions: 10 μM, 24 h
Protocol: Apoptosis is the primary mechanism by which potent chemotherapeutic agents destroy cancer cells. […] Flow cytometry measured cell growth in the G0-G1, S, and G2/M cell cycle phases.
Using the MCF-7 cell line, the cell cycle analysis was carried out like our previous investigation. A FACSCalibur flow cytometer was used to analyze the cells after they had been stained with DNA fluorochrome PI (Supplementary Materials). […]
photomultiplier voltage and for compensation setting adjustment to eliminate spectral overlap between the FL1 and the FL2 signals.
6. Cell cycle analysis
Breast carcinoma (MCF-7) cell was seeded at 2 × 10^5 cells/well density and incubated for 24 h in six-well plates. Foetal bovine serum (10%) was added, and the cells were incubated at 37 °C in an atmosphere of 5% CO2. The medium was replaced with 1% (v/v) DMSO containing 10.0 μM of […]
with 70% ethanol, rinsed with phosphate-buffered saline, and then stained with the DNA fluorochrome propidium iodide (PI) for 15 min at 37 °C. Then, samples were analyzed by flow cytometry using a FACSCalibur (Becton Dickinson). The cell cycle distributions were calculated using CellQuest software (Becton Dickinson). […]

COLO 205 = assay: NCI anticancer screening (SRB), Colon Cancer subpanel; type: cell-based, human
[12] = tested on: NSC Lung Cancer subpanel tumor cell lines; assay: NCI anticancer screening, subpanel summary; type: cell-based; conditions: NSC Lung Cancer, mean over subpanel cell lines
[13] = Homo sapiens, five concentrations
[14] = Homo sapiens, read-out: LC50, subpanel average

CCN(CC)c1ccc(C=NNC(=O)c2ccc(NS(C)(=O)=O)cc2)c(O)c1 [Compound 8]
GI% (UACC-257; 10.0 µM in one dose): > 100%
GI50 (UACC-257; [13]): 463 nM
GI% (SNB-75; 10.0 µM in one dose): 52%
GI50 (SNB-75; [13]): 519 nM
GI% (NCI-H322M; 10.0 µM in one dose): 75%
GI50 (NCI-H322M; [13]): 258 nM
GI% (NCI-H522; 10.0 µM in one dose): 88%
GI50 (NCI-H522; [13]): 360 nM
GI% (RPMI-8226; 10.0 µM in one dose): 84%
GI50 (RPMI-8226; Homo sapiens, PRMI-8226, five concentrations): 2720 nM
GI% (HT29; 10.0 µM in one dose): 73%
GI50 (HT29; Homo sapiens, HT-29, five concentrations): 495 nM
Necrosis (MCF-7 cells [1]): 6.08%
Total Apoptosis (MCF-7 cells [1]; annexin V-FITC/PI): 38.16%
Early Apoptosis (MCF-7 cells [1]; lower-right quadrant): 22.49%
Late Apoptosis (MCF-7 cells [1]; upper-right quadrant): 9.59%
GI50 ([2]; Homo sapiens): 826 nM
CC50 [2, 14]: 80.6 µM
TGI, subpanel average [2]: 23.37 µM
GI50 ([3]; Homo sapiens): 1030 nM
CC50 [3, 14]: 94.9 µM
GI50 [3]: 1030 nM
TGI, subpanel average [3]: 52.90 µM
GI50 ([4]; Homo sapiens): 400 nM
LC50 (NCI-60 lethal concentration, subpanel average) ([4]; Homo sapiens): 80.1 µM
TGI, subpanel average [4]: 30.53 µM
TGI, subpanel average [5]: 15.22 µM
GI50 ([5]; Homo sapiens): 599 nM
CC50 [5, 14]: 99.9 µM
GI50 ([6]; Homo sapiens): 451 nM
CC50 [6, 14]: 86.6 µM
TGI, subpanel average [6]: 14.14 µM
GI50 ([7]; Homo sapiens): 563 nM
CC50 [7, 14]: 93.6 µM
TGI, subpanel average [7]: 21.64 µM
GI50 ([8]; Homo sapiens, read-out: GI50 MG-MID): 501 nM
GI50 ([8]; Homo sapiens, read-out: GI50 range over the cell lines): 141 to 2720 nM
CC50 ([8]; Homo sapiens, read-out: LC50 MG-MID): > 100 µM
TGI MG-MID ([8]; full panel mean-graph midpoint): 46.8 µM
PCE (positive cytotoxic effect) ([8]; ratio of cell lines with growth inhibition > 10% to total cell lines, 10 µM single dose): 59/59
GI50 ([9]; Homo sapiens): 700 nM
CC50 [9, 14]: > 100 µM
TGI, subpanel average [9]: 79.88 µM
GI50 ([10]; Homo sapiens): 527 nM
CC50 [10, 14]: 98 µM
TGI, subpanel average [10]: 60.80 µM
%G0–G1 (MCF-7 cells [11]): 51.94%
%G2-M (MCF-7 cells [11]): 14.64%
%S (MCF-7 cells [11]): 33.42%
Comment (cell cycle arrest phase) (MCF-7 cells [11]): Growth arrest@ S
GI% (COLO 205; 10.0 µM in one dose): 94%
GI50 (COLO 205; [13]): 349 nM
GI50 ([12]; Homo sapiens): 622 nM
CC50 [12, 14]: 94.9 µM
TGI, subpanel average [12]: 22.08 µM

From article PMC11728000, “Antitumor Activity and Multi-Target Mechanism of Phenolic Schiff Bases Bearing Methanesulfonamide Fragments: Cell Cycle Analysis and a Molecular Modeling Study” (International Journal of Molecular Sciences, 2024)
